Measurements reported in paper PMC12483148 (2025).
Blank lines part the entries; values can stand above or below the compound they belong to.

What was measured:
Experiment in all cases: BLI, steady state fit
[1] = test system: SAM-I riboswitch (3'-biotinylated) (RNA, riboswitch) GGCUUAUCAAGAGAGGUGGAGGGACUGGCCCGACGAAACCCGGCAACCAGAAAUGGUGCCAAUUCCUGCAGCGGAAACGUUGAAAGAUGAGCCG; conditions: 150 mM Na+, 2 mM Mg2+, 10 mM HEPES pH 7.4, 0.005% Surfactant P20, RNA immobilised
[2] = test system: FMN riboswitch (3'-biotinylated) (RNA, riboswitch) GAUCUUCAGGGCGGGGUGAAAUUCCCCACCGGCGGUACAGCCCGCGAGCCCAGGAAACUGGGCAGACUUGGUGAAACUCCAAGGCCGACAGUAAAGUCUGGAUGAAAGAAGAUC; conditions: 150 mM Na+, 2 mM Mg2+, RNA immobilised
[3] = test system: TPP riboswitch (3'-biotinylated) (RNA, riboswitch) CAGUACUCGGGGUGCCCUUCUGCGUGAAGGCUGAGAAAUACCCGUAUCACCUGAUCUGGAUAAUGCCAGCGUAGGGAAGUGCUG; conditions: 150 mM Na+, 2 mM Mg2+, 10 mM HEPES pH 7.4, 0.005% Surfactant P20, RNA immobilised
[4] = 10 mM HEPES pH 7.4, 0.005% Surfactant P20

SMILES: Nc1ncnc2c1ncn2[C@@H]1O[C@H](CSCC[C@H](N)C(=O)O)[C@@H](O)[C@H]1O
KD,stead ([1]; highest concentration 500 μM): 545 µM

SMILES: O=c1cc(-c2cccs2)nc(C2CCCNC2)[nH]1 (stereo not shown)
KD,stead [2, 4]: 48 µM

SMILES: O=C(NCc1ccc[nH]1)c1ccc2[nH]cnc2c1
KD,stead ([2]; HBS-P+ pH 7.4, 5% DMSO, apparent): 14 µM

SMILES: C[S+](CC[C@H](N)C(=O)O)C[C@H]1O[C@@H](n2cnc3c(N)ncnc32)[C@H](O)[C@@H]1O (stereo partly shown)
KD,stead [1]: 0.17 µM

Continued, values first:

KD,stead ([3]; b29 says 10 μM): 7.0 µM
SMILES: Cc1ncc(C[n+]2csc(CCO)c2C)c(N)n1

KD,stead ([3]; single measurement, low signal-to-noise): 0.016 µM
SMILES: Cc1ncc(C[n+]2csc(CCOP(=O)(O)OP(=O)(O)O)c2C)c(N)n1

KD,stead [2, 4]: 0.043 µM
SMILES: Cc1cc2nc3c(=O)[nH]c(=O)nc-3n(C[C@H](O)[C@H](O)[C@H](O)COP(=O)(O)O)c2cc1C
